Results as given in publication PMC6212553, “Baicalein Enhances the Oral Bioavailability and Hepatoprotective Effects of Silybin Through the Inhibition of Efflux Transporters BCRP and MRP2” (Frontiers in Pharmacology, 2018).
Where two headings read alike, the source gives them in different places.

Tests used:
[1] = Bidirectional transport of silybin across Caco-2 cell monolayers; format: in vitro ADME, Human; conditions: human
Description: Human colon epithelial cell line (Caco-2) was purchased from American Type Culture Collection (Manassas, VA, United States) and frozen at -80°C. Wild type MDCK II, MDR1-MDCK II, BCRP-MDCK II, and MRP2-MDCK II cells were kindly supplied by the Netherlands Cancer Institute (Amsterdam, Netherlands). Transport study was carried out with Caco-2 cells, and MDCK II cells were transfected using a previously established method with slight modifications ([Yuan et al., 2017]). The Caco-2 cells were cultured at 37°C/5% CO2 in Dulbecco's modified Eagle's medium (DMEM) supplemented with 10% fetal bovine serum, 1% nonessential amino acids, and 1% penicillin-streptomycin. The Caco-2 cells were seeded onto polyester filter membranes in a 12-well Transwell® plate (Corning Costar Co., NY, United States) with 0.6 × 10^5 cells/cm^2. The monolayer cells were used for transport assays between 21 and 23 days. The MDCKII cells were seeded on transwell plates with a density of 2.0 × 10^5 cells/cm^2 and grown for 4-5 days to form a confluent monolayer. Bidirectional transport assays for Caco-2 and MDCK II cells were performed by adding silybin (10 μM) in assay buffer into either the apical (AP; A-to-B) or basolateral (BL; […] For inhibition studies, Caco-2 or MDCK II cell monolayers in both apical and basolateral chambers were preincubated with the inhibitor for 30 min. The fluorescence intensity of the sample collected from the AP or BL side was immediately detected in a 96-well black plate by the Microplate UV/VIS spectrophotometer (TECAN Infinite […], Männedorf, Switzerland). For liquid chromatography tandem-mass spectrometry (LC-MS/MS) analysis, the sample (100 μl) was mixed with methanol (50 μl) containing internal standard (25 ng/ml) and was stored at -80°C. The formula for calculating apparent permeability coefficient (Papp) values is as follows: (1) […] where dQ/dt (mM/s) represents the rate of permeation of the drug across the cells, C0 (mM) refers to the concentration in the donor compartment at time zero calculated from dosing solution, and A (cm^2) refers to the area of the cell monolayer. Papp (B-A) is the Papp value measured in the B to A direction, and Papp (A-B) is the Papp value measured in the A to B direction. The efflux ratio is given as ER = Papp (B to A)/Papp (A to B).

[2] = Pharmacokinetic study in rats after oral administration; format: in vivo, SD rats; conditions: silybin 50 mg/kg oral; for CL/F / MRT last / Tmax / half-life: male, SD, rat, plasma, po, 50 mg/kg; for CL/F: read-out: CLz/F, free silybin (converted); for MRT last: read-out: MRT(0-t), free silybin; for Tmax: read-out: Tmax, free silybin; for half-life: read-out: t1/2z, free silybin (converted)
Description: A previously established liquid chromatography-mass spectrometry (LC-MS) method with slight modifications was used to determine the concentrations of all glucuronide and sulfate conjugates of silybin and free silybin in bio-samples (plasma, cell and media) ([Wen et al., 2008]). In brief, a 10 μl aliquot of each sample was enzymatically hydrolyzed with […] (8000 U/ml) and sulfatase (80 U/ml), and the reaction was terminated by adding 40 μl ice-cold acetonitrile containing glacial acetic acid (1%) and internal standard NG (25 ng/ml). After centrifugation at 13,500 rpm for 15 min at 4°C, the supernatant was dried in ice bath by blowing nitrogen. Later, the residues were reconstituted with 60 μl of 30% methanol in water containing 1% ascorbic acid, and an aliquot of 10 μl of final solution after centrifugation was analyzed by LC-MS/MS. In parallel, a 10 μl aliquot of each sample without enzymes was treated with 40 μl ice-cold acetonitrile containing glacial acetic acid (1%) and NG (25 ng/ml) to determine the concentration of free silybin. Therefore, the concentration of total glucuronides and sulfates was estimated based on the difference between the amount of total silybin (after incubation with both glucuronidase and sulfatase) and free silybin (without enzymatic incubation). The method was validated in terms of specificity, recovery, linearity, sensitivity (LLOQ), matrix effect, accuracy, precision, and stability based on the USA Food and Drug Administration (FDA) bioanalytical method validation guidance. The quantitative linear range for silybin A and B was 5 to 12500 ng/ml.
The analysis for the determination of the concentration of silybin and its glucuronides and sulfates was performed on an Agilent HP 1100 LC-MS system (Agilent, CA, United States) with Waters ACQUITY UPLC® BEH C18 Column (1.7 μm, 2.1 × 50 mm, Waters Corp., Ireland) protected by a C18 Security Guard cartridge (4 × 2.0 mm i.d., Phenomenex, Torrance, CA, United States). Silybin A and B were well separated using optimized gradient elution with 0.1% formic acid in water (mobile phase A) and methanol (mobile phase B) at a flow rate of 0.4 ml/min within 10 min at room temperature (22°C). The gradient elution was performed as follows (time: mobile phase B percentage): 0 min: 25%, 6 min: 40%, 6.5 min: 25%.
Mass spectrometry parameters: capillary voltage, -4000 V; drying gas, 9 L/min; drying gas temperature, 325°C; nebulizer pressure, 40 psi; fragment voltage, 35 V; dwell time, 200 ms; scan mode, selective ion monitoring (SIM) with [M-H]^- for silybin (m/z 481), mono-glucuronide (m/z 657), and NG (m/z 271). The LC-MS data were collected by Agilent ChemStation Software.
Male SD rats, weighting 200–250 g, were purchased from the Guangdong Medical Laboratory Animal Center. They were housed as six rats per cage and in a temperature- (21°C) and humidity-controlled (70%) room with a 12 h light/dark cycle with standard diet and water. All animals were allowed to acclimate to the housing conditions for 7 days prior to experimentation. Experimental procedures were approved by the Committee of Guangdong Provincial Hospital of Traditional Chinese Medicine (No # 2017044).
The SD rats were randomly divided into three groups with six rats per group and were given oral administration as follows: (1) silybin at a dosage of 50 mg/kg bodyweight, (2) silybin and baicalein at a dosage of 50 mg/kg each, and (3) baicalein at a dosage of 50 mg/kg body weight. Before the experiment, rats were pre-fasted for 24 h with water ad libitum and were maintained at a temperature of 21°C with 70% relative humidity and a 12 h light/dark cycle. Blood samples were collected via the tail vein (about 0.1 ml) at time intervals of 0, 15, 30, 45, 60, 90, 120, 240, 360, 480, and 720 min after oral administration with a temporary cannula ([Parasuraman et al., 2010]), and the samples were transferred into heparinized micro-centrifuge tubes. […]

[3] = Caco-2, silybin 10 μM, co-treatment with baicalein 5 μM, read-out: efflux ratio
[4] = Caco-2 model, silybin alone, read-out: mean efflux ratio
[5] = with baicalein 50 mg/kg, listed as SBA
[6] = without baicalein, listed as SBA
[7] = with baicalein 50 mg/kg, listed as SBB

efflux ratio at 180 min, 10 μM [1, 3]	efflux ratio at 180 min, 10 μM [1, 4]	CL/F ([2]; with baicalein 50 mg/kg)	MRT last ([2]; with baicalein 50 mg/kg)	Tmax ([2]; with baicalein 50 mg/kg)	half-life ([2]; with baicalein 50 mg/kg)	CL/F ([2]; without baicalein)	MRT last ([2]; without baicalein)	Tmax ([2]; without baicalein)	half-life ([2]; without baicalein)	AUC(0-∞), free silybin ([2]; with baicalein 50 mg/kg)	AUC(0-∞), free silybin ([2]; without baicalein)	Structure (SMILES)	also measured
2.38 ± 0.27	5.62	233 mL/min/kg	1.9 ± 0.2 h	1.5 h	1.6 ± 2.3 h	417 mL/min/kg	4.1 ± 0.9 h	1.5 h	1.5 ± 0.2 h	3599 ± 410 ng ⋅ h/ml	2305 ± 1147 ng ⋅ h/ml	COc1cc([C@H]2Oc3cc([C@H]4Oc5cc(O)cc(O)c5C(=O)[C@@H]4O)ccc3O[C@@H]2CO)ccc1O [silybin A]	AUC(0-t), free silybin ([2]; with baicalein 50 mg/kg): 3534 ± 344 ng ⋅ h/ml; Cmax, free silybin ([2]; with baicalein 50 mg/kg): 1526 ± 126 ng/mL; AUC(0-t), free silybin [2, 5]: 3534 ± 344 ng ⋅ h/ml; Cmax, free silybin [2, 5]: 1526 ± 126 ng/mL; AUC(0-t), free silybin [2, 6]: 1292 ± 342 ng ⋅ h/ml; Cmax, free silybin [2, 6]: 507.7 ± 115 ng/mL
2.33 ± 0.09	5.13	298 mL/min/kg	2.1 ± 0.3 h	1.29 ± 0.51 h	1.34 ± 0.53 h	450 mL/min/kg	4.21 ± 0.98 h	1.5 h	1.7 ± 0.3 h	1812 ± 223 ng ⋅ h/ml	2087 ± 932 ng ⋅ h/ml	COc1cc([C@@H]2Oc3cc([C@H]4Oc5cc(O)cc(O)c5C(=O)[C@@H]4O)ccc3O[C@H]2CO)ccc1O [silybin B]	AUC(0-t), free silybin [2, 7]: 1808 ± 226 ng ⋅ h/ml; Cmax, free silybin [2, 7]: 915.2 ± 151 ng/mL; AUC(0-t), free silybin ([2]; without baicalein): 1195 ± 302 ng ⋅ h/ml; Cmax, free silybin ([2]; without baicalein): 413 ± 69 ng/mL; Cmax, free silybin ([2]; without baicalein, listed as SBB): 412.7 ± 69.3 ng/mL
